Values after ≈ are worked out from the molar mass of the structure shown.
What was measured:
HSV-2 (MS strain) = test: Anti-HSV-2 activity (plaque formation inhibition in human fetal lung fibroblasts); type: cell-based, herpes simplex virus type 2; details: Human alphaherpesvirus 2, Fibroblast, 50% inhibition of plaque formation, human fibroblasts derived from fetal lungs, 2-3 days at 37° C., read-out: ED50 HSV-2
Protocol: (§1) 1. Human fibroblasts derived from fetal lungs were subjected to subculturing in Eagle MEM supplemented with 10% semi-fetal calf serum (Mitsubishi Chemical Corporation) at a 1:2-4 split every 4 days. 2. A suspension of cells obtained by splitting their parent cells (1:2) was seeded in a 12-well multi-plate (2 ml/well), followed by culturing for 4-5 days at 37° C. in a CO2 -incubator. 3. The culture liquid was discarded, and Hanks' MEM (250 μl) containing 50-150 PFU of VR-3 strain of HSV-1 or MS strain of HSV-2 was inoculated, and the virus was allowed to be adsorbed for 30 minutes at 37° C. Thereafter, the viral liquid was discarded. 4. A 2.5% serum-added Eagle MEM containing a test compound and 0.8% methylcellulose was added and the resultant mixture was incubated in a CO2 -incubator for 2-3 days at 37° C. Generally, a test compound is diluted in serial 1/2 log10, and the maximal concentration is 10 μg/ml. 5. The culture liquid was discarded, and the cells were stained with a 0.5% crystal violet solution. Under a stereoscopic light microscope, the number of plaques in each well was counted. Using the equation below, the plaque formation inhibitory ratio (percent inhibition) was obtained. […]

HCMV (AD-169 strain) = test: Anti-Human Cytomegalovirus activity (plaque formation inhibition in human fetal lung fibroblasts); type: cell-based; details: Human betaherpesvirus 5, AD169, Fibroblast, 50% inhibition of plaque formation, human fibroblasts derived from fetal lungs, 4 days plus further 4-5 days, read-out: ED50 HCMV
Protocol: (§2) 1. Human fibroblasts derived from fetal lungs were subjected to subculturing in Eagle MEM supplemented with 10% semi-fetal calf serum (Mitsubishi Chemical Corporation) at a 1:2-4 split every 4 days.
2. A suspension of cells obtained by splitting their parent cells (1:2) was seeded in a 12-well multi-plate (2 ml/well), followed by culturing for 4 days at 37° C. in a CO2 -incubator.
3. The culture liquid was discarded, and 750 μl of a 5% serum-added Eagle MEM containing 50-100 PFU of AD-169 strain of HCMV was inoculated, and the virus was allowed to be adsorbed for 1 hour at 37° C.
4. Without removing the virus, 750 μl of Hanks' MEM containing the test compound was added, and the resultant mixture was incubated in a CO2 -incubator at 37° C. for 4 days. Generally, a test compound is diluted in serial 1/2 log10, and the maximal concentration is 10 μg/ml.
5. The medium was changed to a fresh 2.5% serum-added Eagle MEM containing 0.8% methylcellulose and the test compound having the same concentration, followed by culturing further for 4-5 days.
(§3) 6. The culture liquid was discarded, and the cells were stained with May-Gruenwald's-Giemsa (×10). Under a stereoscopic light microscope, the number of plaques in each well was counted. Using the equation used in (1) above, the plaque formation inhibitory ratio was obtained.
7. […]

VZV (Oka strain) = test: Anti-Varicella Zoster Virus (VZV) activity (plaque formation inhibition in human fetal lung fibroblasts); type: cell-based; details: Human alphaherpesvirus 3, Fibroblast, read-out: ED50 VZV
Protocol: as §2
2. A suspension of cells obtained by splitting their parent cells (1:2) was seeded in a 12-well multi-plate (2 ml/well), followed by culturing for 4-5 days at 37° C. in a CO2 -incubator.
3. The culture liquid was discarded, and 750 μl of a 5% serum-added Eagle MEM containing 50-100 PFU of Oka strain of VZV was inoculated, and the virus was allowed to be adsorbed for 1 hour at 37° C.
4. Without removing the virus, 750 μl of Hanks' MEM containing the test compound was added, and the resultant mixture was incubated in a CO2 -incubator at 37° C. Generally, a test compound is diluted in serial 1/2 log10, and the maximal concentration is 10 μg/ml.
as §3, with “5. After culturing for 4-5 days, the” for “6. The”, “a 0.5% crystal violet solution.” for “May-Gruenwald's-Giemsa (×10).”
6. The plaque formation inhibitory ratio was plotted on a graph with respect to the concentration of the test compound (logarithmic representation).

HSV-1 (VR-3 strain) = test: Anti-HSV-1 activity (plaque formation inhibition in human fetal lung fibroblasts); type: cell-based, herpes simplex virus type 1; details: Human alphaherpesvirus 1, Fibroblast, 50% inhibition of plaque formation, human fibroblasts derived from fetal lungs, 2-3 days at 37° C., read-out: ED50 HSV-1
Protocol: as §1

SMILES | EC50 (HSV-2 (MS strain)) | EC50 (HCMV (AD-169 strain)) | EC50 (VZV (Oka strain)) | EC50 (HSV-1 (VR-3 strain))
Nc1nc2c(ncn2[C@@H]2S[C@H](CO)[C@@H](O)[C@@H]2O)c(=O)[nH]1 [Ib-β, 9-(4-thio-δ-D-arabinofuranosyl)guanine] | 0.59 µg/mL (≈ 1.97 µM) | 0.011 µg/mL | 0.11 µg/mL (≈ 0.368 µM) | 0.49 µg/mL (≈ 1.64 µM)
Nc1nc(N)c2ncn([C@@H]3S[C@H](CO)[C@@H](O)[C@@H]3O)c2n1 [Ia-β, 9-(4-thio-β-D-arabinofuranosyl)-2,6-diaminopurine] | 0.4 µg/mL (≈ 1.34 µM) | 0.022 µg/mL | 0.11 µg/mL (≈ 0.369 µM) | 0.52 µg/mL (≈ 1.74 µM)
